Measurements from paper PMC8348310, “Antioxidants Isolated from Elaeagnus umbellata (Thunb.) Protect against Bacterial Infections and Diabetes in Streptozotocin-Induced Diabetic Rat Model” (Molecules, 2021).

Assays:
Type in all cases: in vivo, Sprague Dawley adult albino rats
Acute toxicity study = conditions: oral 50, 100, 150, 200, 250, 300, and 500 mg/kg body weight; observed 4 h, 24 h to 1 week
Protocol: (§1) Sprague Dawley adult albino rats (body weight range = 170–200 g) were used in in vivo studies. The animals were purchased from Rifah Institute of Pharmaceutical Sciences Islamabad. The entire animals were given food and fresh water ad libitum. The animals were adjusted at room temperature around 22–25 °C. The animals were housed three rats per cage and maintained with light/dark cycle of about 12 h. All the in vivo procedures were carried out according to the ARRIVE guidelines and approval was taken from the Departmental Animal Ethical Committee (DAEC/2019/1), University of Malakand.
For acute toxicity study all the animals were treated orally with different doses (50, 100, 150, 200, 250, 300, and 500 mg/kg body weight) of isolated compound morin. After that the animals were kept under observation for 4 h for signs of toxicity (respiratory aches, convulsions, motor activity, tremors, muscle spasm, sedation, diarrhea, loss of righting reflex, hypnosis, and salivation). All the animals appeared healthy for 24 h to 1 week with no noticeable changes in appearance or behavior, and no signs of mortality were noticed. […]

[1] = test system: STZ-induced diabetic rats; assay: STZ-induced diabetic rat model: fasting blood glucose and body weight
Protocol: as §1
(§2) All the animals were separated into nine groups having eight animals each (Table 1). In the current investigational study STZ-induced diabetic model was used to evaluate the anti-hyperglycemic and anti-hyperlipidemic activity of isolated compound morin in chronic multiple dose experiment. All the animals were treated with their respective treatments for 21 days starting daily at 09:00 am. The fasting blood glucose levels were determined at 0, 4th, 7th, 10th, 15th, and 21st days with glucometer from the tail vein. Changes in the body weight were recorded for untreated control, diabetic, and treated groups in fasting condition from day 1 to day 21 of experimental period and are presented as % increase in body weight.
(§3) According to the reported protocol diabetes was induced into Sprague Dawley adult albino rats by intraperitoneal injection of STZ (50 mg/kg body weight). Blood samples were collected from the tail vein through glucometer strips by means of SD glucometer and the level of blood glucose was measured 72 h after STZ injection. Normal control groups were given normal saline (8 mL/kg, p.o.) as a vehicle, while isolated compound morin to the treatment groups from 3 days after STZ administration for 3 weeks. Animals with blood glucose levels higher than 300 mg/dL were considered diabetic. During the experiment the blood glucose level and body weights were measured.

[2] = test system: STZ-induced diabetic rats; assay: Ex vivo DPPH scavenging of pancreas tissue homogenates (intracellular ROS level); set-up: dose or concentration left out as unconfirmed
Protocol: The pancreas tissue (1 g) was isolated from Sprague Dawley rats, washed with cold saline solution and blotted dried. A weighed portion of the pancreas tissue was homogenized on ice and then centrifuged for 15 min at 3500 rpm at 4 °C. The supernatant was then taken and stored at −20 °C until assessed for different enzymes.
Cellular oxidative stress due to the overproduction of reactive oxygen species (ROS) generated by streptozotocin was measured in pancreas tissues through DPPH free radical scavenging assays. Briefly, 50 µL (0.3 mM) DPPH in methanol was incubated with 100 µL supernatant of the tissue homogenates of each experimental group and […] in the dark for 30 min at room temperature. Ascorbic acid was used as the standard. The absorbance was then read against a blank at 517 nm. The percentage scavenging was calculated according to the equation No 1.

[3] = test system: STZ-induced diabetic rats; assay: STZ-induced diabetic rat model: serum biochemical parameters (liver, renal, lipid profile, HbA1c)
Protocol: as §2, §3
On 21st day of in vivo antidiabetic activity, all the animals were anesthetized by intraperitoneal (IP) injection of pentobarbital sodium (35 mg/kg body weight) and euthanized by means of cervical decapitation according to the ARRIVE guidelines. Blood samples were collected by cardiac puncture and transferred to EDTA containing tubes. Blood was centrifuged at 3500 rpm for 10 min for the separation of serum. Biochemical parameters like serum alkaline phosphatase (ALP), serum glutamate pyruvate transaminase (SGPT), serum glutamate oxaloacetate transaminase (SGOT) and lipid parameters like total cholesterol (TC), triglycerides (TG), low-density lipoproteins (LDL), high-density lipoprotein (HDL), and serum creatinine in serum were assessed by using Biochemistry analyzer (PS-520; Shenzhen Procan Electronics-China) using diagnostic kits (Reactivos, GPL Barcelona, Spain). According to the reported protocol an enzyme-linked immunosorbent assay (ELISA) kit was used to evaluate the level of glycosylated hemoglobin (HbA1c).

[4] = glibenclamide 0.5 mg/kg, morin 15, 30, and 50 mg/kg, vs diabetic control rats
[5] = glibenclamide 5 mg/kg, morin 15, 30, and 50 mg/kg body weight, serum, day 21, vs diabetic control

O=c1c(O)c(-c2ccc(O)cc2O)oc2cc(O)cc(O)c12 [Morin, 2-(2,4-Dihydroxyphenyl)-3,5,7-trihydroxychromen-4-one]
acute toxicity (signs of toxicity, mortality) (Acute toxicity study): safe and nontoxic up to 500 mg/kg body weight
body weight gain ([1]; morin 10 mg/kg body weight): significant (p < 0.01) increases
blood glucose level ([1]; morin 2 and 5 mg/kg body weight): slowly reduce blood glucose level
glucose level ([1]; morin 10, 15, 30, and 50 mg/kg body weight, compared to the diabetic control group): comparable decline in glucose level
body weight gain ([1]; morin 15, 30, and 50 mg/kg body weight): significant (p < 0.001) improvement
blood glucose level ([1]; morin oral 30, 15, 50 mg/kg body weight, vs diabetic control): significant (p ˂ 0.01) decrease
% DPPH inhibition activity in the pancreas tissues ([2]; morin 2 treated group, diabetic control 22.41 ± 4.25): 49.88 ± 3.21%
% DPPH inhibition activity in the pancreas tissues ([2]; morin 5 treated group): 52.66 ± 2.81%
% DPPH inhibition activity in the pancreas tissues ([2]; morin 10 treated group): 60.42 ± 2.12%
% DPPH inhibition activity in the pancreas tissues ([2]; morin 15 treated group): 65.33 ± 22.13%
% DPPH inhibition activity in the pancreas tissues ([2]; morin 30 treated group): 69.33 ± 3.12%
% DPPH inhibition activity in the pancreas tissues ([2]; morin 50 treated group): 71.42 ± 3.23%
HDL cholesterol [3, 4]: significantly increased (p < 0.01)
HbA1c level [3, 4]: significant decrease (p < 0.01; p < 0.001)
LDL level [3, 4]: significant decrease (p < 0.01; p < 0.001)
TC level [3, 4]: significant decrease (p < 0.01; p < 0.001)
TG level [3, 4]: significant decrease (p < 0.01; p < 0.001)
serum creatinine level ([3]; glibenclamide 5 mg/kg, morin 15, 30, and 50 mg/kg body weight, day 21, vs diabetic control): significantly reduced (p < 0.01; p < 0.001)
ALP level [3, 5]: significantly reduced (p < 0.01; p < 0.001)
SGOT level [3, 5]: significantly reduced (p < 0.01; p < 0.001)
SGPT level [3, 5]: significantly reduced (p < 0.01; p < 0.001)
